Test results taken from patent US6511978B1, “Pyrrole derivatives useful for farnesyl transferase inhibitors and their preparations” (LG Life Sciences, Ltd., priority 1999, dated 2003).
pIC50: −log10 of the molar value.

Experiments:
Ras farnesyl transferase [1] = molecular target: T1, Ras farnesyl transferase (Homo sapiens, UniProt P49354+P49356); assay: Ras farnesyl transferase enzyme inhibition, K-Ras substrate (H-Ras fused with polybasic lysine domain of K-Ras); assay type: biochemical; details: K-Ras substrate (fused protein of H-Ras with polybasic lysine domain of K-Ras); recombinant farnesyl transferase
T1 construct: made in house
From the text: (§1) In the present experiment, the improved Pompliano's method (see: Pompliano et al., Biochemistry, 31, 3800, 1992) was applied. Specifically, Ras farnesyl transferase produced by genetic recombination techniques was used, and fused protein of H-Ras(H-Ras-CVLS) substituted with polybasic lysine domain at C-terminus of K-Ras (see: Korean Patent Appln. No. 97-14409) was used as a substrate after it had been purified according to the known method(see, Chung et al., Biochimica et Biophysica Acta, 1129, 278, 1992).
(§2) The enzyme reaction was performed in 50 μl of 50 mM Sodium HEPES buffer solution containing 25 mM of potassium chloride, 25 mM of magnesium chloride, 10 mM of DTT and 50 μM of zinc chloride. 1.5 μM of Ras substrate protein, 0.15 μM of tritium-farnesylpyrophosphate and 4.5 nM of farnesyl transferase were used. More specifically, in the initial step, farnesyl transferase was added to the above buffer solution, reaction was maintained for 30 minutes at 37° C. and then the reaction was stopped by adding 1 ml of ethanol solution containing 1M HCl. The formed precipitates were adsorbed to GF/B filter using Hopper harvestor(Hopper #FH 225V) for filter-binding, washed with ethanol, and then radioactivity of the dried filter was measured using LKB β counter. Enzyme titer was measured in the unsaturated state of substrate where the concentration of Ras substrate protein and farnesyl transferase have quantitative relationship. The compound according to the present invention dissolved in dimethyl sulfoxide(DMSO) was added to the reaction solution in an amount of less than 5% of the total reaction solution, and then the enzyme inhibitory activity thereof was measured. The enzyme inhibitory activity was represented by percentage of the amount of farnesyl incorporated into the Ras substrate protein in the presence of the test compound to that in the absence of the test compound. IC50 of the test compound was defined as the concentration at which 50% of the enzyme activity was inhibited. To evaluate the selective enzyme inhibitory activity of the compound according to the present invention, inhibitory activity on geranylgeranyl transferase was measured. Geranylgeranyl transferase was purified from bovine brain according to the modified Schaber's method(Schaber et al., J. Biol. Chem. 265, 14701, 1990), and substantially the same experimental procedure as that for farnesyl transferase was performed on geranylgeranyl pyrophosphate and Ras-CVIL substrate protein.

Ras farnesyl transferase [2] = molecular target: T1, Ras farnesyl transferase; assay: Ras farnesyl transferase enzyme inhibition, H-Ras substrate; assay type: biochemical; details: H-Ras substrate protein; recombinant farnesyl transferase; 30 minutes at 37° C.
From the text: as §1, §2

Ras farnesyl transferase [3] = molecular target: T2, Ras farnesyl transferase (Rattus norvegicus, UniProt Q02293+Q04631); assay: In vivo (intracellular) Ras farnesylation inhibition in Rat2 cell line transformed with H-Ras fused with polybasic lysine domain of K-Ras; assay type: cell-based; details: Rat2 cells transformed with H-Ras/K-Ras polybasic domain fused protein; concentration inhibiting 50% of farnesyl binding; read-out: K-Ras CIC50
T2 construct: endogenous in cells; host or cells: Rat2 fibroblasts transformed with C-Harvey-Ras or with the H-Ras/K-Ras polybasic-domain fusion
Experimental: (§3) In the present experiment, Rat2 cell line which expresses C-Harvey-Ras protein having transforming activity and Rat2 cell line(Korean patent application No. 97-14409) which is transformed with fused protein of H-Ras substituted with polybasic lysine domain at C-terminus of K-Ras were used. The experiment was performed by the modified Declue's method(Declue. J. E. et al., Cancer Research, 51, 712, 1991) as follows.
(§4) 3×10^5 cells of transformed Rat2 fibroblast cell line were sprayed on 60 mm cell cultivation dish and cultivated for 48 hours in a cell incubator at 37° C. and after 50% or more of density was reached, it was treated with the test compounds. The compound according to the present invention dissolved in dimethylsulfoxide(DMSO) was used. 1% concentration of dimethylsulfoxide was used in both control and test groups. After 4 hours from the treatment with the compound, methionine labeled with 150 μCi of radioactive isotope [^35S] per 1 ml of medium was added and after cultivating for 20 hours, the cells were washed with physiological saline water. The cells were lysed using 1 ml of cold cell lysis buffer solution(50 mM of Sodium HEPES buffer solution containing 5 mM of magnesium chloride, 1 mM of DTT, 1% NP 40, 1 mM of EDTA, 1 mM of PMSF, 2 μM of leupeptin, 2 μM of pepstatin A and 2 μM of antipain) and the supernatant wherein the cells were lysed was obtained by high-velocity centrifugation of 12,000 g×5 minutes. The amount of radioisotope in the supernatant was measured and standardized to obtain a quantitative result in immunoprecipitation reaction and then, Y13-259, a monoclonal antiboby specifically binding to Ras protein(see: Furth, M. E. et al., J. Virol, 43, 294, 1982) was added and reacted for 15 hours at 4° C. Protein A(combined with goat anti-murine immunoglobulin antibody)-agarose suspension was added to the solution and reacted for 1 hour at 4° C. and then, to remove the unspecific binding product, immunoprecipitates were washed with a buffer solution (50 mM Tris chloride buffer solution containing 50 mM of sodium chloride, 0.5% of sodium dioxycholate, 0.5% of NP 40 and 0.1% of SDS). The precipitates were added to a buffer solution for electrophoresis and boiled and then, electrophoresis was performed using 13.5% of SDS polyacrylamide gel. After electrophoresis, the gel was fixed and dried. Then, the gel was exposed to X-ray film, developed and printed. From the result of the experiment, intensities of band of protein combined with or without farnesyl of Ras protein was measured, and the concentration of the test compound inhibiting 50% of farnesyl binding was defined as CIC50, an in vivo Ras farnesyl transferase inhibitory activity. IC50 means the data from Experimental 1 and CIC50 means the data from Experimental 2.

Ras farnesyl transferase [4] = molecular target: T2, Ras farnesyl transferase; assay: In vivo (intracellular) Ras farnesylation inhibition in Rat2 cell line expressing C-Harvey-Ras; assay type: cell-based; details: Rat2 cells expressing C-Harvey-Ras; concentration inhibiting 50% of farnesyl binding; read-out: H-Ras CIC50
Experimental: as §3, §4

| SMILES | pIC50 (Ras farnesyl transferase [1]) | pIC50 (Ras farnesyl transferase [2]) | pIC50 (Ras farnesyl transferase [3]) | pIC50 (Ras farnesyl transferase [4]) |
| --- | --- | --- | --- | --- |
| CCSc1c(C(=O)N2CCN(C)CC2)c(-c2cccc3ccccc23)cn1Cc1cncn1Cc1ccc2c(c1)OCO2 [Example 25, 2-ethylthio-1-[1-(3,4-methylenedioxybenzyl)-1H-imidazol-5-ylmethyl]-3-(4-methylpiperazin-1-yl)carbonyl-4-(naphthalen-1-yl)-1H-pyrrole] | > 8.22 | > 8.70 | > 5.30 | > 8.00 |
| COc1ccccc1CCn1c(Cn2cc(C(=O)N3CCN(C)CC3)c(-c3cccc4ccccc34)c2)cnc1C [Example 26, 1-[1-(2-methoxyphenethyl)-2-methyl-1H-imidazol-5-ylmethyl]-3-(4-methylpiperazin-1-yl)carbonyl-4-(naphthalen-1-yl)-1H-pyrrole] | > 8.19 | > 8.70 | < 5.00 | > 7.60 |
| CCOCCCn1c(Cn2cc(C(=O)N3CCN(C)CC3)c(-c3cccc4ccccc34)c2)cnc1C [Example 27, 1-[1-(3-ethoxypropyl)-2-methyl-1H-imidazol-5-ylmethyl]-3-(4-methylpiperazin-1-yl)carbonyl-4-(naphthalen-1-yl)-1H-pyrrole] | < 7.70 | > 8.52 | < 5.00 | > 7.60 |
| COCCN(C)C(=O)c1cn(Cc2c(C)ncn2CCCOCc2ccccc2Cl)cc1-c1cccc2ccccc12 [Example 32, 1-{1-[3-(2-chlorobenzyloxy)propyl]-4-methyl-1H-imidazol-5-ylmethyl}-3-[N-(2-methoxyethyl)-N-methyl]carbamoyl-4-(naphthalen-1-yl)-1H-pyrrole] | > 7.82 | > 8.22 | < 5.00 | > 8.20 |
| Cc1ncc(Cn2cc(C(=O)N3CCN(C)CC3)c(-c3cccc4ccccc34)c2)n1CCCOCc1ccccc1 [Example 33, 1-[1-(3-benzyloxypropyl)-2-methyl-1H-imidazol-5-ylmethyl]-3-(4-methylpiperazin-1-yl)carbonyl-4-(naphthalen-1-yl)-1H-pyrrole] | < 7.52 | < 7.52 | < 5.00 | < 7.52 |
| Cc1ncc(Cn2cc(C(=O)N3CCN(C)CC3)c(-c3cccc4ccccc34)c2)n1CCc1ccccc1 [Example 35, 1-[1-(phenethyl)-2-methyl-1H-imidazol-5-ylmethyl]-3-(4-methylpiperazin-1-yl)carbonyl-4-(naphthalen-1-yl)-1H-pyrrole] | > 8.23 | > 8.60 | < 5.00 | > 8.60 |
| O=[N+]([O-])c1cn(Cc2cncn2Cc2ccc3c(c2)OCO3)cc1-c1cccc2ccccc12 [Example 36, 1-[1-(3,4-methylenedioxybenzyl)-1H-imidazol-5-ylmethyl]-4-(naphthalen-1-yl)-3-nitro-1H-pyrrole] | > 7.81 | > 8.26 | < 4.70 | < 7.00 |
| O=[N+]([O-])c1cn(Cc2cncn2Cc2ccc(Cl)cc2)cc1-c1cccc2ccccc12 [Example 37, 1-[1-(4-chlorobenzyl)-1H-imidazol-5-ylmethyl]-4-(naphthalen-1-yl)-3-nitro-1H-pyrrole] | > 8.02 | > 8.24 | < 5.00 | < 7.60 |
| O=[N+]([O-])c1cn(Cc2cncn2Cc2ccc(Br)cc2)cc1-c1cccc2ccccc12 [Example 38, 1-[1-(4-bromobenzyl)-1H-imidazol-5-ylmethyl]-4-(naphthalen-1-yl)-3-nitro-1H-pyrrole] | < 7.52 | > 7.64 | < 5.00 | < 7.60 |
| O=[N+]([O-])c1cn(Cc2cncn2CCc2ccccc2)cc1-c1cccc2ccccc12 [Example 39, 1-[1-(phenethyl)-1H-imidazol-5-ylmethyl]-4-(naphthalen-1-yl)-3-nitro-1H-pyrrole] | > 8.08 | > 8.22 | < 5.00 | > 7.60 |
| Cc1ccc(CCn2cncc2Cn2cc(-c3cccc4ccccc34)c([N+](=O)[O-])c2)cc1 [Example 40, 1-[1-(4-methylphenethyl)-1H-imidazol-5-ylmethyl]-4-(naphthalen-1-yl)-3-nitro-1H-pyrrole] | < 7.52 | > 7.62 | < 5.00 | < 7.30 |

Next, values leading:

| pIC50 (Ras farnesyl transferase [1]) | pIC50 (Ras farnesyl transferase [2]) | pIC50 (Ras farnesyl transferase [3]) | pIC50 (Ras farnesyl transferase [4]) | SMILES |
| --- | --- | --- | --- | --- |
| > 8.49 | > 8.66 | > 5.00 | > 8.20 | CCOCCCn1cnc(C)c1Cn1cc(C(=O)N2CCN(C)CC2)c(-c2cccc3ccccc23)c1 [Example 28, 1-[1-(3-ethoxypropyl)-4-methyl-1H-imidazol-5-ylmethyl]-3-(4-methylpiperazin-1-yl)carbonyl-4-(naphthalen-1-yl)-1H-pyrrole] |
| > 8.57 | > 8.61 | > 5.00 | > 8.20 | Cc1ncn(CCCOCc2ccccc2)c1Cn1cc(C(=O)N2CCN(C)CC2)c(-c2cccc3ccccc23)c1 [Example 29, 1-[1-(3-benzyloxypropyl)-4-methyl-1H-imidazol-5-ylmethyl]-3-(4-methylpiperazin-1-yl)carbonyl-4-(naphthalen-1-yl)-1H-pyrrole] |
| > 8.68 | > 8.30 | > 5.00 | > 7.90 | COCCN(C)C(=O)c1cn(Cc2c(C)ncn2CCCOCc2ccccc2)cc1-c1cccc2ccccc12 [Example 30, 1-[1-(3-benzyloxypropyl)-4-methyl-1H-imidazol-5-ylmethyl]-3-[N-(2-methoxyethyl)-N-methyl]carbamoyl-4-(naphthalen-1-yl)-1H-pyrrole] |
| > 8.68 | > 8.49 | > 5.00 | > 8.20 | Cc1ncn(CCCOCc2ccccc2Cl)c1Cn1cc(C(=O)N2CCN(C)CC2)c(-c2cccc3ccccc23)c1 [Example 31, 1-{1-[3-(2-chlorobenzyloxy)propyl]-4-methyl-1H-imidazol-5-ylmethyl}-3-(4-methylpiperazin-1-yl)carbonyl-4-(naphthalen-1-yl)-1H-pyrrole] |
| > 8.40 | > 8.05 | < 5.00 | < 7.30 | O=[N+]([O-])c1cn(Cc2cncn2CCc2ccc(Cl)cc2)cc1-c1cccc2ccccc12 [Example 41, 1-[1-(4-chlorophenethyl)-1H-imidazol-5-ylmethyl]-4-(naphthalen-1-yl)-3-nitro-1H-pyrrole] |
